Measurements from publication PMC8073907, “Peptide targeting of lysophosphatidylinositol-sensing GPR55 for osteoclastogenesis tuning” (Cell Communication and Signaling : CCS, 2021).

B1: RANKL: Receptor-activator of nuclear factor kappa-β ligand, Peprotech (protein, UniProt O14788 140-317, looked up)
Tumor necrosis factor ligand …: IRAEKAMVDGSWLDLAKRSKLEAQPFAHLTINATDIPSGSHKVSLSSWYHDRGWAKISNMTFSNGKLIVNQDGFYYLYANICFRHHETSGDLATEYLQLMVYVTKTSIKIPSSHTLMKGGSTKYWSGNSEFHFYSINVGGFFKLRSGEEISIEVSNPSLLDPDQDATYFGAFKVRDID

Legend:
endogenous GPR55 (HeLa) = test: LPI-induced ERK/p38 phosphorylation in shCTRL-HeLa clones (Western blot); assay type: cell-based, human
Method: For stable interference of GPR55, HeLa cells were plated at 1.5 × 10^5 cells/well in six-well plates in growth medium without antibiotics, and 24 h later, the cells were transfected with 1.7 µg/well OmicsLink short hairpin (sh)RNA expression clone CSHCTR001-CU6 (shCTRL) or clone HSH022476-3-CU6 (shGPR55) from GeneCopoeia (Rockville, MD, USA), using Lipofectamine 2000, according the manufacturer instructions. Forty-eight hours after transfection, HeLa clones stably expressing shRNAs were selected in growth medium containing 0.3 µg/mL puromycin. The efficiency of interference was monitored by real-time PCR using the primers listed in the Additional file 1: Table S1. HPRT1 was followed as a housekeeping gene.
Twenty-four hours after transfection (HEK293T, HeLa cells or clones) or 72 h after interference (RAW264.7 cells), the cells were washed twice with HBSS^++, serum deprived (HEK293T cells for 4 h in DMEM; HeLa cells and clones for 2 h in MEM plus 2 mM glutamine and 25 mM HEPES; RAW264.7 cells for 2 h in DMEM), washed once again with HBSS^++, incubated in stimulation buffer (HBSS^++ with 10 mM HEPES, 0.4% faf-BSA for HEK293T cells; HBSS^++ with 25 mM HEPES and 0.01% faf-BSA for HeLa cells, clones, and RAW264.7 cells) in the absence or presence of stimuli, at 37 °C for the indicated times. Incubations were terminated by washing the cells twice with cold HBSS^++, and the analyses were performed as reported below.
Cell lysates were obtained by scraping the cells into phospho-lysis buffer: 50 mM Tris–HCl, pH 7.5, 100 mM NaCl, 5 mM EDTA, 1% Triton X-100, 50 mM NaF, 40 mM β-glycerophosphate, 200 µM sodium orthovanadate, plus protease and phosphatase inhibitors (Roche). Following gentle homogenisation by 20 passages through a 26-gauge needle, the lysates were centrifuged at 10,000×g for 5 min at 4 °C, and the supernatants were collected.
Protein lysates were subjected to SDS-PAGE, and after electrophoresis, the proteins were transferred to a nitrocellulose membrane (PerkinElmer Life Science, Boston, MA, USA). For immunoblotting, the membranes were blocked with 5% non-fat milk in TBS (10 mM Tris–HCl, pH 7.4, 10 mM NaCl) plus 0.1% Tween-20 (T-TBS) for 30 min at room temperature, and incubated with primary antibodies in T-TBS plus 3% BSA for 2 h at room temperature, or overnight at 4 °C. The membranes were washed twice in T-TBS for 7 min, and then incubated with secondary antibodies conjugated to horseradish peroxidase (1:5,000) (Calbiochem, San Diego, CA, USA) in T-TBS with 5% non-fat milk for 30 min at room temperature. The membranes were then washed twice with T-TBS and once with TBS for 5 min, and the signals were detected by ECL (Amersham Pharmacia, Piscataway, NJ, USA). The rabbit anti-phospho AKT (Ser473), anti-phospho p38 (Thr180/Tyr182), anti-phospho p42/44 (Thr202/Tyr204), anti-p38 (all at dilution 1:1000) were from Cell Signaling Technology (Danvers, MA, USA). The rabbit anti-AKT (B-1), and anti-p42/44 (ERK1; K-23) were from Santa Cruz Biotechnology.

RAW264.7 cells = test: RANKL-induced transcription of osteoclastogenesis markers in RAW264.7 cells (real-time PCR); assay type: cell-based, murine; conditions: 72 h
Method: (§1) Total RNA was extracted using RNeasy isolation kits, cDNAs were obtained using QuantiTect Reverse Transcription kits, and real-time PCRs were performed with QuantiTect SYBR Green PCR kits (all from Qiagen, Hilden, Germany), according to the manufacturer instructions. The primers used for the real-time PCRs and their annealing temperatures are listed in the Additional file 1: Table S1. Human hypoxanthine phosphoribosyltransferase 1 (HPRT1) or murine β2-microglobulin were followed as housekeeping genes. The real-time PCR programme consisted of an initial 15 min at 95 °C, and then 45 cycles as follows: 94 °C for 15 s, annealing temperature of each primer for 30 s, and 72 °C for 30 s. The real-time PCR machine used was a LightCycler 480 Instrument II (Roche, Indianapolis, IN, USA).
For transient interference of Gpr55, RAW264.7 cells were plated at 6 × 10^5 cells/well in six-well plates in growth medium without antibiotics. Twenty-four hours later, the cells were transfected with 250 pmol/well non-targeting small-interfering (si)RNAs (si-NT; siGENOME siRNA Pool #2; D-001206-14; Dharmacon, Chicago, IL, USA) or Gpr55-specific siRNAs (si-GPR55; siGENOME mouse GPR55 SMART pool; M-043590-01; Dharmacon) using Lipofectamine LTX and Plus Reagent, according to the manufacturer instructions. Twenty-four hours later, the cells were plated for the different assays or for RNA extraction. The efficiency of interference was monitored by real-time PCR after 72 h of interference, using the primers listed in the Additional file 1: Table S1. β2-microglobulin was followed as a housekeeping gene.
(§2) For the osteoclastogenesis in-vitro assay, RAW264.7 cells were plated in differentiation medium (α-MEM with 10% heat-inactivated FBS, 2 mM L-glutamine, 100 U/mL penicillin, and 100 ug/mL streptomycin) at a density of 5 × 10^3 cells/well in 24-well plates on coverslips for morphological analysis, or at 2 × 10^4 cells/well in six-well plates for RNA extraction. Twenty-four hours later and every 48 h, the medium was replaced and the cells were treated with 15–30 ng/mL RANKL with DMSO and/or PBS as carriers, or with GPR55 antagonists/ agonists (0.5 µM ML-191, 30 µM O1918, 0.5 µM CBD, 0.5 μM CID16020046 1 µM soybean LPI, 1 μM ML-184), or with the peptides (150 nM peptide-P1; or the irrelevant peptide, Irr_P). Twenty-four hours after the last addition, the cells were fixed with 4% paraformaldehyde for morphological analyses or harvested for RNA extraction (see above).

[1] = system: Gpr55 mRNA in RAW264.7 cells; test: Modulation of Gpr55 mRNA levels by receptor ligands in RANKL-treated RAW264.7 cells; assay type: cell-based, murine; conditions: 72 h; for Gpr55 mRNA levels (fold non-differentiated): alone or + 1 μM soybean LPI, 0.5 μM ML-191, 0.5 μM CBD or 30 μM O1918, means ± SEM of at least three independent experiments
Method: as §1, §2

[2] = system: HA-GPR55 in HEK293T cells; test: LPI-induced ERK1/2 activation in GPR55-transfected HEK293T cells; assay type: cell-based, human; conditions: soybean or synthetic LPI, 100 nM to 10 µM, 3–30 min; different transfection methods
Excerpt: The construct of haemagglutinin (HA)-tagged human GPR55 in pcDNA3 (HA-GPR55) was a gift from Prof. K. Mackie, Indiana University, Bloomington, IN, USA [39], while the construct ss-3 × HA-GPR55 in pcDNA3.1 (ssGPR55) with a triple HA tag at the N-terminus and an optimised signal sequence (ss, derived from amino acids 1–33 of the human growth hormone: […]) for efficient surface expression was from Prof. A. Irving, Dundee University, UK [40]. For both constructs, mutations were introduced by site-directed mutagenesis using QuickChange kits (Stratagene, La Jolla, CA, USA), according to the manufacturer instructions. The primers for the K80A mutation were 5′-[…]-3′ and 5′-[…]-3′ (Tm, 70.6 °C), and for Q87A were 5′-[…]-3′ and 5′-[…]-3′ (Tm, 73.1 °C).
For GPR55 overexpression, HEK293T cells were plated in their growth medium without antibiotics at 2.6 × 10^5 cells/well in 12-well plates, and 24 h later, the cells were transfected with 1 µg cDNA/well using Lipofectamine 2000, according to the manufacturer instructions. The pcDNA3 empty vector or that coding for human HA-GPR55 wild-type or its mutants HA-GPR55-K80A and HA-GPR55-Q87A were used.
Twenty-four hours after transfection (HEK293T, HeLa cells or clones) or 72 h after interference (RAW264.7 cells), the cells were washed twice with HBSS^++, serum deprived (HEK293T cells for 4 h in DMEM; HeLa cells and clones for 2 h in MEM plus 2 mM glutamine and 25 mM HEPES; RAW264.7 cells for 2 h in DMEM), washed once again with HBSS^++, incubated in stimulation buffer (HBSS^++ with 10 mM HEPES, 0.4% faf-BSA for HEK293T cells; HBSS^++ with 25 mM HEPES and 0.01% faf-BSA for HeLa cells, clones, and RAW264.7 cells) in the absence or presence of stimuli, at 37 °C for the indicated times. […]
Protein lysates were subjected to SDS-PAGE, and after electrophoresis, the proteins were transferred to a nitrocellulose membrane (PerkinElmer Life Science, Boston, MA, USA). […] The membranes were then washed twice with T-TBS and once with TBS for 5 min, and the signals were detected by ECL (Amersham Pharmacia, Piscataway, NJ, USA). […]

[3] = system: osteoclasts derived from RAW264.7 cells; test: Osteoclast functional assay (bone resorption on bovine cortical bone slices); assay type: cell-based, murine; conditions: 15 ng/mL RANKL, 7 days; at least three independent experiments
Method: RAW264.7 cells were plated in differentiation medium at a density of 1250 cells/100 µL on 0.2-mm-thick bovine cortical bone slices (BoneSlices.com, Jelling, Denmark) in 96-well plates. Six hours later, 100 µL differentiation medium with RANKL (15 ng/mL, final concentration) was added, in the presence of a carrier or in combination with the GPR55 modulators. The media with the different compounds were replaced every 48 h, for a total of 7 days. At the end of this period, the cells were detached with a 10% bleach solution, and the resorption excavations were visualised by using Toluidine Blue staining (Sigma-Aldrich). Images of the resorption areas were obtained under the microscope (SW380T; Swift Optical Instruments, Inc., TX, USA) using the 10 × objective, and acquired with a digital camera (Swiftcam SC1003; Swift Optical Instruments, Inc.). The total eroded surface underwent blinded quantification using ImageJ (NIH), and was subdivided into pit and trench surfaces. Pits were characterised as round excavations with well-defined edges where the ratio between length and width was < 2.0. Trenches were defined as elongated excavations with well-defined edges whose length was at least twice the wide, and with clear signs of continued resorption. The prevalence of trenches was calculated as a proportion (%) of the trench surface relative to the total eroded surface.

[4] = 10 µM soybean LPI, 30 µM ML-191, 10 µM CBD or 10 µM O1918
[5] = 15–30 ng/mL RANKL, 0.5 µM ML-191, 0.5 µM CBD, 30 µM O1918, four independent experiments
[6] = 30 ng/mL RANKL, mean ± range of two independent experiments

| Molecule | inhibition of LPI stimulation of both ERK2 and p38 phosphorylation at 5 min (endogenous GPR55 (HeLa); [4]) | inhibition of LPI-induced stimulation of ERK1/2 (endogenous GPR55 (HeLa); [4]) | basal ERK2 activation level (without LPI) (endogenous GPR55 (HeLa); 30 µM ML-191 or 10 µM O1918) | effect on RANKL-induced Mmp-9 mRNA (RAW264.7 cells; 15–30 ng/mL RANKL, 0.5 µM CBD, 30 µM O1918) | effect on RANKL-induced Ctr mRNA (RAW264.7 cells; [5]) | reduction of RANKL-induced Nfatc1 mRNA (RAW264.7 cells; [5]) | reduction of RANKL-induced Trap mRNA (RAW264.7 cells; [5]) | effect on RANKL-induced Cathepsin-k mRNA (RAW264.7 cells; 15–30 ng/mL RANKL, 30 µM O1918) | Gpr55 mRNA levels (fold non-differentiated) ([1]; 30 ng/mL RANKL) | effect on RANKL-stimulated Gpr55 mRNA levels ([1]; 30 μM O1918) | ERK1/2 activation in GPR55-transfected compared to empty-vector-transfected cells [2] | Cathepsin-k mRNA increase versus undifferentiated cells (RAW264.7 cells; [6]) | Mmp-9 mRNA increase versus undifferentiated cells (RAW264.7 cells; [6]) | Nfatc1 mRNA increase versus undifferentiated cells (RAW264.7 cells; [6]) | Trap mRNA increase versus undifferentiated cells (RAW264.7 cells; [6]) | Gpr55 mRNA increase ([1]; 30 ng/mL RANKL, three independent experiments) | trench surface relative to total eroded surface [3] |
| --- | --- | --- | --- | --- | --- | --- | --- | --- | --- | --- | --- | --- | --- | --- | --- | --- | --- |
| C=C(C)[C@@H]1CCC(C)=C[C@H]1c1c(OC)cc(C)cc1OC [O1918] | inhibited LPI stimulation of both ERK2 and p38 phosphorylation at 5 min | abolished | significantly increased basal activation levels | not affected | not affected | 40% | 40% | not affected | 15.8 ± 3.1 fold non-differentiated | did not show any effects | – | – | – | – | – | – | – |
| L-α-lysophosphatidylinositol sodium salt from soybean [soybean LPI] | – | – | – | – | – | – | – | – | 24.5 ± 2.1 fold non-differentiated | – | inconsistent ERK1/2 activation | – | – | – | – | – | – |
| B1 | – | – | – | – | – | – | – | – | 16.1 ± 1.6 fold non-differentiated | – | – | 468.5 (±24.3) -fold | 673.3 (±4.7) -fold | 11.9 (±2.2) -fold | 188.8 (±57.6) -fold | 14 -fold | 42 ± 8 % of total eroded surface |
